Here are results for 7 compounds from PubChem BioAssay AID1259407 (Chemical Carcinogenesis Research Information System (CCRIS), 2018).

For this series, the system named is CCRIS mutagenicity, Ames/micronucleus/aberration tests. In words: CCRIS mutagenicity studies.
The mark [1] stands for this setting: Test System: AMES SALMONELLA TYPHIMURIUM, Strain/Indicator: TA98, Metabolic Activation: NONE, Method: STANDARD PLATE.
Setting [2] is: Test System: AMES SALMONELLA TYPHIMURIUM, Strain/Indicator: TA100, Metabolic Activation: NONE, Method: STANDARD PLATE.
[3] abbreviates: Test System: AMES SALMONELLA TYPHIMURIUM, Strain/Indicator: TA1538, Metabolic Activation: NONE, Method: STANDARD PLATE.
Where [4] appears, read: Test System: AMES SALMONELLA TYPHIMURIUM, Strain/Indicator: TA1538, Metabolic Activation: RAT, LIVER, S-9, AROCLOR 1254, Method: STANDARD PLATE.
The mark [5] stands for this setting: Test System: AMES SALMONELLA TYPHIMURIUM, Strain/Indicator: TA98, Metabolic Activation: RAT, LIVER, S-9, AROCLOR 1254, Method: STANDARD PLATE.
Where [6] appears, read: Test System: AMES SALMONELLA TYPHIMURIUM, Strain/Indicator: TA100, Metabolic Activation: RAT, LIVER, S-9, AROCLOR 1254, Method: STANDARD PLATE.

Active and inactive are the calls of the source. No rule for the calls is given here.

Regarding `Nc1ccc(N=Nc2ccc(-c3ccc(N=Nc4c(S(=O)(=O)O)cc5c(c4N)C(=O)/C(=N/Nc4ccccc4)C(S(=O)(=O)O)=C5)cc3)cc2)c(N)c1`, the mutagenic call was “active; positive” (Test System: AMES SALMONELLA TYPHIMURIUM, Strain/Indicator: SV50, Metabolic Activation: HAMSTER, LIVER, S-9, Method: PREINCUBATION (PRIVAL METHOD)); “active; positive” (Test System: AMES SALMONELLA TYPHIMURIUM, Strain/Indicator: SV50, Metabolic Activation: RAT, LIVER, S-9, AROCLOR 1254, Method: PREINCUBATION (PRIVAL METHOD)); “active; positive” (Test System: AMES SALMONELLA TYPHIMURIUM, Strain/Indicator: TA98, Metabolic Activation: HAMSTER, LIVER, S-9, Method: PREINCUBATION (PRIVAL METHOD)); “inactive; negative” under setting [1]; “active; positive” (Test System: AMES SALMONELLA TYPHIMURIUM, Strain/Indicator: TA98, Metabolic Activation: RAT, LIVER, S-9, AROCLOR 1254, Method: PREINCUBATION (PRIVAL METHOD)); “inactive; negative” (Test System: AMES SALMONELLA TYPHIMURIUM, Strain/Indicator: TA98, Metabolic Activation: RAT, LIVER, S-9, PHENOBARBITAL, Method: STANDARD PLATE). Besides, the mutagenic call was “inactive; negative” under setting [2]; “inactive; negative” (Test System: AMES SALMONELLA TYPHIMURIUM, Strain/Indicator: TA100, Metabolic Activation: RAT, LIVER, S-9, PHENOBARBITAL, Method: STANDARD PLATE); “inactive; negative” under setting [3]; “active; positive” under setting [4]; “active; positive, test conducted under both aerobic and anaerobic conditions” (Test System: Ames Salmonella typhimurium, Strain/Indicator: TA98, Metabolic Activation: Rat, Liver, S-9, Sodium phenobarbitone, Method: Preincubation); “active; positive, test conducted under both aerobic and anaerobic conditions” (Test System: Ames Salmonella typhimurium, Strain/Indicator: TA1538, Metabolic Activation: Rat, Liver, S-9, Sodium phenobarbitone, Method: Preincubation).
As for `CCc1ccc2c3c(cccc13)-c1ccccc1-2`, the mutagenic call under setting [1] was “inactive; negative” and the mutagenic call (Test System: AMES SALMONELLA TYPHIMURIUM, Strain/Indicator: TA98, Metabolic Activation: RAT, LIVER, S-9, AROCLOR 1254 (4%), Method: STANDARD PLATE) was “inactive; negative”.
As to `O=C(/C=C/c1ccc([N+](=O)[O-])cc1)c1ccc([N+](=O)[O-])cc1`, the mutagenic call is, setting by setting: under setting [1], “active; positive”; under setting [5], “inactive; negative”; under setting [2], “inactive; negative”; under setting [6], “inactive; negative”.
As to `Nc1ncnc2c1ncn2[C@H]1CC[C@@H](CO)O1`, the mutagenic call (Test System: AMES SALMONELLA TYPHIMURIUM, Strain/Indicator: TA98, Metabolic Activation: HAMSTER, LIVER, S-9, AROCLOR 1254, Method: STANDARD PLATE) is “inactive; negative”; the mutagenic call under setting [1] is “inactive; negative”; the mutagenic call under setting [5] was “inactive; negative”; the mutagenic call (Test System: AMES SALMONELLA TYPHIMURIUM, Strain/Indicator: TA100, Metabolic Activation: HAMSTER, LIVER, S-9, AROCLOR 1254, Method: STANDARD PLATE) is “inactive; negative”; the mutagenic call under setting [2] was “inactive; negative”; the mutagenic call under setting [6] was “inactive; negative”. For the same compound, the mutagenic call runs as follows: (Test System: AMES SALMONELLA TYPHIMURIUM, Strain/Indicator: TA1535, Metabolic Activation: HAMSTER, LIVER, S-9, AROCLOR 1254, Method: STANDARD PLATE) “inactive; negative”; (Test System: AMES SALMONELLA TYPHIMURIUM, Strain/Indicator: TA1535, Metabolic Activation: NONE, Method: STANDARD PLATE) “inactive; negative”; (Test System: AMES SALMONELLA TYPHIMURIUM, Strain/Indicator: TA1535, Metabolic Activation: RAT, LIVER, S-9, AROCLOR 1254, Method: STANDARD PLATE) “inactive; negative”; (Test System: AMES SALMONELLA TYPHIMURIUM, Strain/Indicator: TA1537, Metabolic Activation: HAMSTER, LIVER, S-9, AROCLOR 1254, Method: STANDARD PLATE) “inactive; negative”; (Test System: AMES SALMONELLA TYPHIMURIUM, Strain/Indicator: TA1537, Metabolic Activation: NONE, Method: STANDARD PLATE) “inactive; negative”; (Test System: AMES SALMONELLA TYPHIMURIUM, Strain/Indicator: TA1537, Metabolic Activation: RAT, LIVER, S-9, AROCLOR 1254, Method: STANDARD PLATE) “inactive; negative”. Besides, the mutagenic call is, setting by setting: (Test System: AMES SALMONELLA TYPHIMURIUM, Strain/Indicator: TA1538, Metabolic Activation: HAMSTER, LIVER, S-9, AROCLOR 1254, Method: STANDARD PLATE) “inactive; negative”; under setting [3], “inactive; negative”; under setting [4], “inactive; negative”; (Test System: MOUSE LYMPHOMA, Strain/Indicator: L5178Y (TK+/TK-), Metabolic Activation: NONE, Method: SUSPENSION/PLATE) “active; positive. reevaluation of results: positive”; (Test System: MOUSE LYMPHOMA, Strain/Indicator: L5178Y (TK+/TK-), Metabolic Activation: RAT, LIVER, S-9, AROCLOR 1254, Method: SUSPENSION/PLATE) “active; positive. reevaluation of results: equivocal”.
Take `CCCCN(CC(O)c1ccc(O)cc1)N=O` (stereo not drawn): the mutagenic call runs as follows: (Test System: AMES SALMONELLA TYPHIMURIUM, Strain/Indicator: TA98, Metabolic Activation: NONE, Method: PREINCUBATION) “inactive; negative”; (Test System: AMES SALMONELLA TYPHIMURIUM, Strain/Indicator: TA98, Method: PREINCUBATION) “inactive; negative”; (Test System: AMES SALMONELLA TYPHIMURIUM, Strain/Indicator: TA100, Metabolic Activation: NONE, Method: PREINCUBATION) “inactive; negative”; (Test System: AMES SALMONELLA TYPHIMURIUM, Strain/Indicator: TA100, Method: PREINCUBATION) “inactive; negative”.
Turning to `CC(C)(C)c1ccc(C(=O)ON(OCc2ccccc2)C(=O)c2ccccc2)cc1`, the mutagenic call under setting [2] was “active; positive”.
As to `CC[C@H]1O[C@@H]1c1ccccc1`, the mutagenic call was “inactive; negative” (Test System: AMES SALMONELLA TYPHIMURIUM, Strain/Indicator: TA98, Metabolic Activation: NONE, Method: PREINCUBATION (PHOSPHATE-BUFFERED KCL OR SOLUTE-FREE WATER MEDIA)); “inactive; negative” (Test System: AMES SALMONELLA TYPHIMURIUM, Strain/Indicator: TA100, Metabolic Activation: NONE, Method: PREINCUBATION (PHOSPHATE-BUFFERED KCL OR SOLUTE-FREE WATER MEDIA)); “inactive; negative” (Test System: AMES SALMONELLA TYPHIMURIUM, Strain/Indicator: TA104, Metabolic Activation: NONE, Method: PREINCUBATION (PHOSPHATE-BUFFERED KCL OR SOLUTE-FREE WATER MEDIA)).
